The text below walks through data of article PMC2744931, “Glutamate Uptake Triggers Transporter-Mediated GABA Release from Astrocytes” (PLoS ONE, 2009).

Usually IC50 stands for the concentration needed to halve the response being measured.

Data set [1] relates to GAT-3. On the set-up: method as in PMID 17408599, PMID 16274841. Particulars: cited from earlier work.
For data set [2], the system named is human NPMVs. The experiment in a line: [3H]GABA uptake in human brain tissue NPMVs. The class given is biochemical. Particulars: 100 µM NNC-711; hippocampus, cortical gray and white matter, spinal cord white matter, choroid plexus, corpus callosum. As for the experimental part:
(§1) Cerebral cortices of 4–6 weeks old male Wistar rats (Toxicoop, Hungary) and frozen human brain tissue samples (Hungarian Brain Tissue Bank, Budapest) were used to prepare NPMV fractions, that contain numerous membrane vesicles of different sizes and shapes, a few intact synaptosomes and free mitochondria. […] Afterward, preincubated solution was incubated with [^3H]GABA (10 nM, Amersham) and GABA (90 nM, Sigma) for 1 min. In case of [^3H]β-alanine uptake, incubation solution contained 100 nM [^3H]β-alanine (Amersham) and 900 nM β-alanine (Sigma). After the incubation, samples were immediately filtered through glass fiber filters and washed twice with ice-cold HEPES buffer. The [^3H]GABA level inside the plasma membrane vesicles was determined by liquid scintillation method. Although this method is generally used to measure GABA uptake, we applied it to follow GABA release due to the simplicity and reliability of the assay. We also determined GABA release by preloading [^3H]GABA into NPMV vesicles and measuring the [^3H]GABA level in the intracellular and extracellular milieu. […] Non-specific uptake was determined in the presence of 1 mM guvacine. The radioactivity of samples was counted in HiSafe 3 (Perkin Elmer) scintillation mixture.

Data set [3] relates to rat hippocampus. As to the kind of experiment: In vivo microdialysis and HPLC amino acid detection in the hippocampus. The protocol: Male Wistar rats (300–400 g) were anaesthetized with halothane (1% in air) and microdialysis probes were implanted into the ventral hippocampus (A: −5.0, L: 5.0, V: −8.0) as described previously. To minimize tissue damage, the final position of the probes was reached slowly, in not less than 20 min. Perfusion of artificial cerebrospinal fluid, containing 144 mM NaCl, 3 mM KCl, 1 mM MgCl2, 2 mM CaCl2 (pH 7.4), was performed at a rate of 1 µl/min. The dialysate samples during 20 min were stored at −20°C. To establish the background amino acid concentration, each experiment started with the collection of three control samples with <10% variation. NNC-711 was applied bilaterally for 60 min followed by the simultaneous application of t-PDC and NNC-711 for 60 min. Concentration of amino acids was measured by pre-column derivatization of primary amino acids with orthophthalaldehyde (OPA, Sigma). Derivatization was performed at pH 10.4 in the presence of mercaptoethanol. OPA-derivatized amino acids were detected with fluorescence detector excitation wavelength 340 nm and emission wavelength 440 nm. Because of the instability of OPA derivatives, the HPLC technique was automated on an HP 1100 series system. Amino acids were separated on HP Hypersyl ODS reversed-phase columns (200×2.1 mm) filled with 5 µm C-18 spherical packing material. Eluent A was 0.1 M phosphate buffer containing 0.5% (vol/vol) tetrahydrofuran (Merck), pH 5.6, while eluent B contained 70% acetonitrile (Merck) in eluent A, pH 5.6. The gradient profile was: 12% B at 0 min, 23% B at 9 min, 36% B at 18 min, 100% B at 20 min, 100% B at 25 min and 12% B at 30 min. The column equilibration time was 8 min. External standards of 10 µM amino acids were injected after every 20 samples. Chromatograms were evaluated with HP Chem-Station software. Concentration of GABA measured in dialysate samples collected during drug applications were related to averaged GABA concentration of control samples collected for an hour prior to drug application and were given as percent changes.

The subject of data set [4] is GABA transport in rat cerebrocortical NPMV (GAT-2/3). The experiment in a line: [3H]GABA uptake in rat cerebrocortical native plasma membrane vesicles (NPMV) in the presence of 100 µM NNC-711. The class given is biochemical. As for the experimental part: as §1
Data set [5] has as its system hippocampus. The note with it: cited from earlier work.
Data set [6] concerns Glu decarboxylase (GAD). As to the kind of experiment: NMR (13C-HSQC) of [13C]GABA formation from [13C]Glu in rat cortical NPMV fraction. The class given is biochemical. As for the experimental part:
NPMV samples for NMR experiments were prepared as described before. NPMV fractions from the whole cortex were homogenized in 1 ml HEPES buffer containing 300 µM [^13C]Glu and were incubated at 30°C for 30 min. The homogenate was then centrifuged at 3500 g for 15 min. The supernatant (extracellular fraction) was stored and the pellet (intracellular fraction) was suspended in 1 ml HEPES buffer and frozen (−80°C) and thawed 3 times. In the NMR experiments on brain slices, 13 hippocampal slices were put in a 2 ml centrifuge tube and the ACSF was replaced with 1 ml ACSF containing 300 µM [^13C]Glu. The slices were incubated at 37°C for 30 min. Afterwards, the samples were frozen (−80°C) and thawed 3 times.
NMR experiments were carried out at 30°C on a Varian NMR SYSTEM (600 MHz for ^1H) four-channel spectrometer using a 5 mm indirect detection triple resonance (^1H^13C^15N) z-axis gradient probe. Samples (200 µl) were placed into 5 mm Shigemi NMR tubes. Gradient-enhanced ^1H/^13C heteronuclear correlation spectra (^13C-HSQC) were acquired with a ^1H spectral width of 9600 Hz and 2048 complex points, zero-filled to a total of 4096. […] Gaussian and exponential weighting functions were applied in the F2 dimension, while the indirectly detected dimensions were Gaussian weighted only. […]

Data set [7] relates to acute rat hippocampal slices. The experiment in a line: [3H]GABA efflux from acute rat hippocampal slices (microvolume superfusion). The class given is cell-based. The protocol: Radiolabeling of 400 µm thick acute slices was conducted in 200 µl of ACSF in a glass tube. […] To preferentially label the cytosolic over the vesicular pools, incubation of slices at 30°C lasted for 10 min [54]. Slices were washed with fresh ACSF containing GABA-T inhibitors, thereafter placed in a custom-built closed micro-volume (50 µl) chamber secured in a water bath thermostated at 30°C [55]. […] The superfusate was collected in 0.5 ml fractions. After washing for 10 min, 10 fractions were collected to define the basal release of radioactivity (‘pre-stimulus’). At this point, the hippocampal slice was exposed to 100 µM Glu for a period of 10 min (‘drug application’), followed by further 10 min of washing with ACSF (‘washout’). Radioactivity of each 0.5 ml fraction counted in 3 ml HiSafe 3 scintillation mixture was expressed as the percentage of the actual radioactivity content of the slice (fractional release). Fractional release data from individual slices were normalized to a first order exponential curve (obtained by fitting the pre-stimulus and the last 3 washout values). Normalized percent efflux data from fractions of ‘pre-stimulus’ (1–10 min) versus ‘drug application’ (11–20 min) periods were averaged and compared by statistical analysis.

For data set [8], the system named is GAT-2/3. As to the kind of experiment: [3H]β-alanine uptake in rat cerebrocortical NPMV fraction. Particulars: n = 3. The class given is biochemical. The protocol: as §1
The subject of data set [9] is rat cortex NPMVs. The experiment in a line: [3H]GABA release from NPMV vesicles preloaded with [3H]GABA. In kind it is biochemical. The note with it: 10 min incubation with Glu, n = 3. The protocol:
as §1

Data set [10] concerns rat cerebrocortical NPMV. The experiment in a line: Total extracellular GABA by HPLC in rat cerebrocortical NPMV samples. In kind it is biochemical. The note with it: 300 µM Glu, n = 3.

Turning to `CC[C@@H](C(N)=O)N1CCCC1=O` [levetiracetam], the “GAT-3 expression in the hippocampus” value in data set [1] is given as “up-regulate GAT-3 expression”.
Regarding `O=C(O)[C@@H]1CN[C@@H](C(=O)O)C1` (relative stereo) [t-PDC, L-trans-pyrrolidine-2,4-dicarboxylate], the “inhibition of [3H]GABA uptake in human brain tissue samples” value in data set [2] is “able to inhibit [^3H]GABA uptake in all investigated areas”. Moreover, the “[Arginine]o in the rat hippocampus in vivo” value in data set [3] (control for non-specific release, n = 10) is 94±32 % of control. Moreover, in data set [3] (microdialysis application, t-PDC applied together with NNC-711, n = 10), the “[GABA]o in the rat hippocampus in vivo” value was 233±33 % of control. For the same compound, in data set [4] (10 min preincubation, 100 µM NNC-711 (Figure 1B)), the “effect on GABA transport in rat cortical NPMV” value is recorded as “able to affect GABA transport”. Besides, the “neuronal damage after in vivo administration in the hippocampus” value in [5] was “did not produce cell death”. Further, the “neuronal damage in vivo” value in data set [5] (very high concentration (25–100 mM)) is listed as “did not evoke neuronal damage in vivo”.
With `CN1C(=O)CC(=O)N(c2ccccc2)c2cc(Cl)ccc21` [clobazam], the “GAT-3 expression in the hippocampus” value in data set [1] is “up-regulate GAT-3 expression”.
`NNC(N)=O` [SCB, semicarbazide]: the “effect on [13C]GABA formation” value in data set [6] (SCB treatment, rat cortical NPMV fraction) was “completely blocked”. The “modulation of the effect of Glu on GABA transport / cytosolic GABA level in rat cortical NPMV” value in data set [4] (100 µM NNC-711 present) is “did not affect [^3H]GABA release”. For the same compound, in data set [7] (Glu-induced release, slices of SCB-treated animals (100 mg/kg i.p., 2 mM present), n = 7), the “elevation of [GABA]o ([3H]GABA efflux)” value is reported as 145±14 % of pre-stimulus control.
`N[C@@H](CCC(=O)O)C(=O)O` [Glu, L-glutamate]: in data set [2], the “inhibition of [3H]GABA uptake in human brain tissue samples” value was “able to inhibit [^3H]GABA uptake in all investigated areas”. Besides, in data set [8], the “effect on cytosolic β-alanine level ([3H]β-alanine uptake)” value is on record as “reduce cytosolic level”. The concentration for half-maximal inhibition (IC50) in [9] was 13.1 ± 1.6 µM; in [4] (10 min preincubation, 100 µM NNC-711, rat cerebrocortical NPMV, n = 7, read-out: IC50, inhibition of [3H]GABA uptake), 11 ± 0.1 µM. In addition, the “inhibition of GABA uptake” value in data set [4] (preincubation of vesicles with Glu for 10 minutes, in the presence of NNC-711) worked out at 52%. Moreover, the “elevation of [GABA]o ([3H]GABA efflux)” value in data set [7] (100 µM Glu in low-[Ca2+]/high-[Mg2+] buffer, n = 5) is listed as 148.3±15.5 % of pre-stimulus control; in [7] (100 µM Glu in the presence of glutamate receptor antagonists (DL-AP5 50 µM, CNQX 10 µM, (S)-MCPG 500 µM), n = 7), 128.5±13.4 % of pre-stimulus control; in data set [7] (100 µM Glu, control conditions, n = 6) it was 149±14 % of pre-stimulus control. Also, the “share of average [GABA]o increase remaining” value in data set [7] (Glu-induced release in the presence of Glu receptor antagonists) is 58%. Besides, the figures for the “increase of the extracellular GABA level (HPLC)” value in data set [10] (SCB-treated rats) and in data set [10] (control rats) were 35±6% and 46±3%, respectively.
For the compound `[15NH2][13C@@H]([13CH2][13CH2][13C](=O)O)[13C](=O)O` [[^13C]Glu, [U-^13C/^15N]Glu], in [6] (300 µM [13C]Glu, 30 min, rat cortical NPMV), the “share of extracellularly applied [13C]Glu converted to [13C]GABA and released” value was about 5%.
